Reference: the supplement of paper PMC10307832

Columns and labels:
Test in all cases: relative viability (nuclei count vs DMSO), 5 days (fraction); higher = more cells survive
Apatinib + Foretinib = compound: N#CC1(c2ccc(NC(=O)c3cccnc3NCc3ccncc3)cc2)CCCC1 [Apatinib] + COc1cc2c(Oc3ccc(NC(=O)C4(C(=O)Nc5ccc(F)cc5)CC4)cc3F)ccnc2cc1OCCCN1CCOCC1 [Foretinib] (partner 0.25 µM)
Summary of the method: (§1)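 After 5 days of treatment, lung cancer cells in 1536-well plates were fixed and stained in a single step (final 0.05% Triton X-100, 1% formaldehyde, 1 ug/ml Hoechst) and their nuclei counted on 4× images. Treatment had been applied by pin tool the day after seeding as one drug alone or as a fixed anchor-drug dose with five library-drug doses (not always all listed) in √10 steps. Relative viability is the nuclei count of treated wells divided by that of vehicle wells, and values are medians of duplicate plates.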

Metformin + Alpelisib = compound: CN(C)C(=N)NC(=N)N [Metformin] + Cc1nc(NC(=O)N2CCC[C@H]2C(N)=O)sc1-c1ccnc(C(C)(C)C(F)(F)F)c1 [Alpelisib] (partner 2 µM)
Summary of the method: as §1

Apatinib + Crizotinib = compound: N#CC1(c2ccc(NC(=O)c3cccnc3NCc3ccncc3)cc2)CCCC1 [Apatinib] + C[C@@H](Oc1cc(-c2cnn(C3CCNCC3)c2)cnc1N)c1c(Cl)ccc(F)c1Cl [Crizotinib] (partner 1 µM)
Summary of the method: as §1

Metformin + Dasatinib = compound: CN(C)C(=N)NC(=N)N [Metformin] + Cc1nc(Nc2ncc(C(=O)Nc3c(C)cccc3Cl)s2)cc(N2CCN(CCO)CC2)n1 [Dasatinib] (partner 0.075 µM)
Summary of the method: as §1

Cell Line | relative viability (Apatinib + Foretinib; first compound 0.08 µM) | relative viability (Apatinib + Foretinib; first compound 0.253 µM) | relative viability (Apatinib + Foretinib; first compound 0.8 µM) | relative viability (Apatinib + Foretinib; first compound 2.53 µM) | relative viability (Apatinib + Foretinib; first compound 8 µM) | relative viability (Metformin + Alpelisib; first compound 10 µM) | relative viability (Metformin + Alpelisib; first compound 31.62 µM) | relative viability (Metformin + Alpelisib; first compound 100 µM) | relative viability (Metformin + Alpelisib; first compound 316.23 µM) | relative viability (Metformin + Alpelisib; first compound 1000 µM) | relative viability (Apatinib + Crizotinib; first compound 0.08 µM) | relative viability (Apatinib + Crizotinib; first compound 0.253 µM) | relative viability (Apatinib + Crizotinib; first compound 0.8 µM) | relative viability (Apatinib + Crizotinib; first compound 2.53 µM) | relative viability (Apatinib + Crizotinib; first compound 8 µM) | relative viability (Metformin + Dasatinib; first compound 10 µM) | relative viability (Metformin + Dasatinib; first compound 31.62 µM) | relative viability (Metformin + Dasatinib; first compound 100 µM) | relative viability (Metformin + Dasatinib; first compound 316.23 µM) | relative viability (Metformin + Dasatinib; first compound 1000 µM)
RERF-LC-KJ | 0.875 | 0.931 | 0.857 | 0.737 | 0.733 | 0.702 | 0.746 | 0.788 | 0.619 | 0.735 | 0.776 | 0.834 | 0.778 | 0.704 | 0.629 | 0.689 | 0.709 | 0.613 | 0.462 | 0.534
NCI-H647 | 1.14 | 1.39 | 1.16 | 1.13 | 0.977 | 1.07 | 1.05 | 1.08 | 1.15 | 1.21 | 1.18 | 1.23 | 1 | 0.846 | 0.737 | 0.226 | 0.231 | 0.567 | 0.221 | 0.212
NCI-H1395 | 1.02 | 1.01 | 1.04 | 0.99 | 1.02 | 0.835 | 1.02 | 1.1 | 0.424 | 0.342 | – | – | – | – | – | 0.438 | 0.483 | 0.493 | 0.385 | 0.509
NCI-H522 | – | – | – | – | – | – | – | – | – | – | – | – | – | – | – | 1.07 | 1.15 | 1.18 | 1.02 | 1.07
NCI-H322M | 1.02 | 0.857 | 0.944 | 0.984 | 0.88 | 0.83 | 0.901 | 0.845 | 0.787 | 0.779 | 0.917 | 0.925 | 0.946 | 0.825 | 0.776 | 0.326 | 0.318 | 0.31 | 0.305 | 0.245
H3255 | 0.973 | 0.795 | 0.757 | 0.753 | 0.675 | 0.697 | 0.783 | 0.712 | 0.339 | 0.486 | 0.956 | 0.841 | 0.907 | 0.723 | 0.786 | 0.391 | 0.344 | 0.232 | 0.402 | 0.315
NCI-H1299 | 1.14 | 1.13 | 1.09 | 1.09 | 0.941 | 0.991 | 0.998 | 1.05 | 0.994 | 0.933 | 0.998 | 0.974 | 0.517 | 0.961 | 0.77 | – | – | – | – | –
ChaGo-K-1 | 0.991 | 1 | 0.942 | 0.851 | 0.745 | – | – | – | – | – | – | 1.09 | 1.1 | 1.05 | 0.901 | 0.742 | 0.712 | 0.637 | 0.501 | 0.722
A549 | 0.945 | 0.933 | 1 | 0.887 | 0.855 | 0.766 | 0.879 | 0.739 | 0.672 | 0.611 | 0.818 | 0.917 | 0.737 | 0.61 | 0.56 | – | – | – | – | –
